Assay results as given in PMC9792776 (Frontiers in Pharmacology, 2022).
Read-outs that look alike come from different tables or passages of the source.

Legend:
[1] = Blood/plasma (B/P) ratio in healthy volunteer blood; assay type: in vitro ADME, human
Excerpt: Besides, the B/P ratio was obtained from healthy volunteer blood, however, in patients with CML, too many myeloid cells become granulocytes (red blood cells, platelets and several white blood cell types). So, red blood cell count might change B/P ratio in CML patients. […] Furthermore, the model simulation for liver cirrhosis patients was not validated by clinical data. We believe that further research is needed on this point.

CYP2C19 = CYP2C19 (Homo sapiens, UniProt P33261); test: CYP2C19 inhibition in human liver microsomes
Sequence of CYP2C19 (P33261 whole entry): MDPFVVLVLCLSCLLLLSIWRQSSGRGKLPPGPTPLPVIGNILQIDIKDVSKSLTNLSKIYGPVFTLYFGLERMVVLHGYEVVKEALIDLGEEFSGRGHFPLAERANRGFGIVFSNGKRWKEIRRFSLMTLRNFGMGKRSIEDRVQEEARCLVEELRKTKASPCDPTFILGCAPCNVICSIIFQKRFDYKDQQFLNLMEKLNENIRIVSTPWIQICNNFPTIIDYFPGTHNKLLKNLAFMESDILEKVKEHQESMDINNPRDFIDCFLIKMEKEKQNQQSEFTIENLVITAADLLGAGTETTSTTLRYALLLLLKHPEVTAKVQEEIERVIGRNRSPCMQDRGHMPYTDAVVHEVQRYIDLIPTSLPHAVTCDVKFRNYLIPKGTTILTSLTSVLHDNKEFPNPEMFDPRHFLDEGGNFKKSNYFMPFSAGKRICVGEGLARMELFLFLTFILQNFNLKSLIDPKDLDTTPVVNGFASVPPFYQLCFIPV
Description: Ki=IC50/1+S/Km (1) Where IC50 signifies the half-maximum inhibitory concentration; S, the concentration of P450 marker substrate; and K m , the Michaelis constant within the Michaelis-Menten equation, which is in turn used to characterize substrate-enzyme binding kinetics.
The Michaelis constant (K m ) of CYP2C9 incubated with diclofenac was obtained from reported data ([Lee et al., 2014]). Methods used to calculate the Ki of CYP2C19 and CYP2C9 were similar.

CYP2B6 = CYP2B6 mRNA induction in cultured human hepatocytes; assay type: cell-based; conditions: for EC50: human, cultured human hepatocytes
[2] = Phase 1 dose escalation study (renal clearance); conditions: human, in vivo; 12 Chinese patients, 50 mg oral on Day 1
OAT1 = molecular target: T1, OAT1 (Homo sapiens, UniProt Q4U2R8); test: Transporter substrate/inhibitor assessment, OAT1; assay type: in vitro ADME
T1 sequence (Q4U2R8 1-563): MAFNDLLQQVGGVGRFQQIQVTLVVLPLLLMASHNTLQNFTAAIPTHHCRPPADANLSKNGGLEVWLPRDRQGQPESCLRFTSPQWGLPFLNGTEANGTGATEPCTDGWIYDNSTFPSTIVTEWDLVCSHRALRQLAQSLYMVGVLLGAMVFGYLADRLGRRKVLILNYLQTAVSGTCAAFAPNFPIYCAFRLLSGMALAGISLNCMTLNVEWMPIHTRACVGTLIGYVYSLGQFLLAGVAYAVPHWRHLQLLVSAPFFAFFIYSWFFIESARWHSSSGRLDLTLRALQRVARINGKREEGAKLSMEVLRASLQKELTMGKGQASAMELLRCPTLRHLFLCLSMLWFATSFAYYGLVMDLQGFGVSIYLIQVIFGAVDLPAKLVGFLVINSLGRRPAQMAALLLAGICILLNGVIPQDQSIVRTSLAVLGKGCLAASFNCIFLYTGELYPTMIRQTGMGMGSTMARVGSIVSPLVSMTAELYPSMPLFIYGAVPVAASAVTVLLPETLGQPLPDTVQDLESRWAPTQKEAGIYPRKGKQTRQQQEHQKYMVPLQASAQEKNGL

OAT3 = molecular target: T2, OAT3 (Homo sapiens, UniProt Q8TCC7); test: Transporter substrate/inhibitor assessment, OAT3; assay type: in vitro ADME
T2 sequence (Q8TCC7 1-542): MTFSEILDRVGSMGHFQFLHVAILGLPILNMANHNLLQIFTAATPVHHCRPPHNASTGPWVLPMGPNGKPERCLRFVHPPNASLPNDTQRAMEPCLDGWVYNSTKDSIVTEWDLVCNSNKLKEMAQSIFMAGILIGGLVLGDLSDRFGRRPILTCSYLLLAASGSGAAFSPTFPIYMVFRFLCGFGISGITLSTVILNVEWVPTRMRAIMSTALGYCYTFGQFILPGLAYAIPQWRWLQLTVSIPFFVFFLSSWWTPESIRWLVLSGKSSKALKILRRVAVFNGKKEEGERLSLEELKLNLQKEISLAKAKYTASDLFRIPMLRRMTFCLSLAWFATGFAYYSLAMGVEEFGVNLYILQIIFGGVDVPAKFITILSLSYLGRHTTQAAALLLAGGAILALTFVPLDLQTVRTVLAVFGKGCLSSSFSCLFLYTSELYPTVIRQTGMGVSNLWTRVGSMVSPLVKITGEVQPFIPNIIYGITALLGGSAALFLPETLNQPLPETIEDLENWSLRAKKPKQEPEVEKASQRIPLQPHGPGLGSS

MATE1 = MATE1 (Homo sapiens, UniProt Q96FL8); test: Transporter substrate/inhibitor assessment, MATE1; assay type: in vitro ADME
Sequence of MATE1 (Q96FL8 whole entry, species assumed): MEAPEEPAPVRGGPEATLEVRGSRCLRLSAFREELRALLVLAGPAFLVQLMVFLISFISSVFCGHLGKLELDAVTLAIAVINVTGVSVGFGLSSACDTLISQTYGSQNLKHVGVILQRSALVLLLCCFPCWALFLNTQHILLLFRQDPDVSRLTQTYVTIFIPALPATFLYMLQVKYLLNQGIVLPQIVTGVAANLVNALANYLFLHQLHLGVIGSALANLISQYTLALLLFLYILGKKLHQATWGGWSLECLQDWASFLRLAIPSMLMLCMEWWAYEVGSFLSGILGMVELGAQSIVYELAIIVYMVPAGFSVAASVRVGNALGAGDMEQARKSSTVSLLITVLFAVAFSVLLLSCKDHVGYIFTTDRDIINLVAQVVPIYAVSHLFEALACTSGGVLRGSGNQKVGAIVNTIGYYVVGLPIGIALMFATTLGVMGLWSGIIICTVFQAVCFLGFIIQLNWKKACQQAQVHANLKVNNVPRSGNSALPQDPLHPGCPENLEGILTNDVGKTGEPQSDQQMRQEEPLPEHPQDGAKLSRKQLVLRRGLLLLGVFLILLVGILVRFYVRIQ

P-gp = P-gp (Homo sapiens, UniProt P08183); test: P-gp substrate and in vivo inhibition assessment
Sequence of P-gp (P08183 whole entry): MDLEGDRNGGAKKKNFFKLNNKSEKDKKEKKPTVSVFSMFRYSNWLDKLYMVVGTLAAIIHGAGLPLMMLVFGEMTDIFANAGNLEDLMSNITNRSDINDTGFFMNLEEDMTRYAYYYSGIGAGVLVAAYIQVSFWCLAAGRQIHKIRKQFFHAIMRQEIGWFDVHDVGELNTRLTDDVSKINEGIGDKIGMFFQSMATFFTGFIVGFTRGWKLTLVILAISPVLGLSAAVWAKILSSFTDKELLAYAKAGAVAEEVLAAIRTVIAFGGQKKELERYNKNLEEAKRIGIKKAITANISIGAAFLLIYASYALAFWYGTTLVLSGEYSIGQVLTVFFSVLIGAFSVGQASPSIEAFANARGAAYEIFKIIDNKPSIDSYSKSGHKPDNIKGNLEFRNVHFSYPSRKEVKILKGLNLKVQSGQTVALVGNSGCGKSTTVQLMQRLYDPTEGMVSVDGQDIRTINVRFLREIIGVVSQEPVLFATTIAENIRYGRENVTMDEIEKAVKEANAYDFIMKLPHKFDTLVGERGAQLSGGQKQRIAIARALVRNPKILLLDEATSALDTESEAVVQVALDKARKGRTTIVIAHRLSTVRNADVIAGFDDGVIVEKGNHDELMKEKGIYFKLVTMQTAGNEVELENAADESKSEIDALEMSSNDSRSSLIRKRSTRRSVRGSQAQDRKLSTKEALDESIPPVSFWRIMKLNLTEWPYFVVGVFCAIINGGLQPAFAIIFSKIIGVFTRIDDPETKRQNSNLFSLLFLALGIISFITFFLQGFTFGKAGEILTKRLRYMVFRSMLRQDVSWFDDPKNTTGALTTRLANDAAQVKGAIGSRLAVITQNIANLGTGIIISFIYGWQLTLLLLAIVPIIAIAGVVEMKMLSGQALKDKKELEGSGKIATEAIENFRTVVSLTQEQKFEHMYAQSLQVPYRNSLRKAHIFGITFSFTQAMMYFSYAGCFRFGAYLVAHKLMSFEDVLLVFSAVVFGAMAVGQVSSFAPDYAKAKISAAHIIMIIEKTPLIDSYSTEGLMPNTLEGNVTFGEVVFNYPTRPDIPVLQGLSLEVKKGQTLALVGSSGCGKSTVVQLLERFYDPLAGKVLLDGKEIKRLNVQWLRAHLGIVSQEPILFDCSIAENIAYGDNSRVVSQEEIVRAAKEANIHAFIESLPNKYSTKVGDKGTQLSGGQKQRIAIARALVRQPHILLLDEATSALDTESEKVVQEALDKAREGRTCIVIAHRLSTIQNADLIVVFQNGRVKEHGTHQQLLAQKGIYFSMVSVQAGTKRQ
Excerpt: (§1) The effects of transporters expressed on the gut and liver have not been investigated.

[3] = molecular target: T3, BCRP (breast cancer resistance protein) (Homo sapiens, UniProt Q9UNQ0); test: BCRP substrate and in vivo inhibition assessment
T3 sequence (Q9UNQ0 1-655): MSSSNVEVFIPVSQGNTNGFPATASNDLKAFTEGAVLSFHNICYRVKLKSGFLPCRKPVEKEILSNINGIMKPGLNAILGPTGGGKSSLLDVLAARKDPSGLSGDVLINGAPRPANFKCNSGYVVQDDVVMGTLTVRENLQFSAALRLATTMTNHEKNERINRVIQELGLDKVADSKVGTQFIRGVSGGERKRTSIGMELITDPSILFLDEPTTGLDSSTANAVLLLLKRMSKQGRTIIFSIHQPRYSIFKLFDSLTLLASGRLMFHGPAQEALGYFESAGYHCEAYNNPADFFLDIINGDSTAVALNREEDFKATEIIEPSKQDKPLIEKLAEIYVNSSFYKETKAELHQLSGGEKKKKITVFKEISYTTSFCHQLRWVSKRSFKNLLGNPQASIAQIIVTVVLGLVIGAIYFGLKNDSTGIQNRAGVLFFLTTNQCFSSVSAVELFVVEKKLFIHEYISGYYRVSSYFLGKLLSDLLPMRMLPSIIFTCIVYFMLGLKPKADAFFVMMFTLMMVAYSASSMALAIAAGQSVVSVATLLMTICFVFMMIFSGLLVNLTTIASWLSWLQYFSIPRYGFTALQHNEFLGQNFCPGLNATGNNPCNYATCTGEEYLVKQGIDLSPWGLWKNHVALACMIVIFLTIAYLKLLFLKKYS
Excerpt: as §1

CYP2C9 [4] = system: CYP2C9
CYP2C9 [5] = test: in vitro; conditions: human

Q: Which “mean conc (N=3)” value ([1]; blood H) does the source give for `Cc1ccc(C(=O)Nc2ccc(CN3CCN(C)CC3)c(C(F)(F)F)c2)cc1C#Cc1cnc2[nH]ncc2c1` [olverembatinib, Olverembatinib] here?
A: 43.5

Q: What about the “mean conc (N=3)” value ([1]; blood L) of the same compound?
A: 0.395

Q: What about the “mean conc (N=3)” value ([1]; blood M) of the same compound?
A: 4.01

Q: What about the “mean conc (N=3)” value ([1]; plasma H) of the same compound?
A: 45.9

Q: What about the “mean conc (N=3)” value ([1]; plasma L) of the same compound?
A: 0.25

Q: What about the “mean conc (N=3)” value ([1]; plasma M) of the same compound?
A: 2.95

Q: What about the Ki (CYP2C19) of the same compound?
A: 1.92 µM

Q: What about the “CYP2C19 inhibition, strength” value (CYP2C19; microsomes) of the same compound?
A: weak

Q: What about the EC50 (CYP2B6; CYP2B6 mRNA, lot AIH, read-out: EC50) of the same compound?
A: 0.828 µM

Q: What about the EC50 (CYP2B6; CYP2B6 mRNA, lot HUM182851, read-out: EC50) of the same compound?
A: 0.29 µM

Q: And the EC50 (CYP2B6; human hepatocytes, mRNA, mean of two lots, read-out: IndC50 CYP2B6 (Mean EC50))?
A: 0.559 µM

Q: What about the “CYP2B6 induction, strength” value (CYP2B6; in vitro studies) of the same compound?
A: weak

Q: And the CL renal [2]?
A: 2.2 mL/min

Q: What about the “substrate or inhibitor of OAT1” value (OAT1) of the same compound?
A: neither a substrate nor inhibitor

Q: What about the “substrate or inhibitor of OAT3” value (OAT3) of the same compound?
A: neither a substrate nor inhibitor

Q: And the “substrate or inhibitor of MATE1” value (MATE1)?
A: neither a substrate nor inhibitor

Q: And the “in vivo inhibition on P-gp” value (P-gp)?
A: no obvious in vivo inhibition

Q: What about the “substrate of P-gp” value (P-gp) of the same compound?
A: is a substrate

Q: And the “in vivo inhibition on BCRP” value [3]?
A: no obvious in vivo inhibition

Q: What about the “substrate of BCRP” value [3] of the same compound?
A: is a substrate

Q: What about the “CYP2C9 induction, strength” value (CYP2C9 [4]; hepatocytes) of the same compound?
A: weak

Q: And the EC50 (CYP2C9 [4]; human)?
A: 0.323 µM

Q: And the EC50 (CYP2C9 [5]; EC50)?
A: 0.584 µM

Q: And the EC50 (CYP2C9 [5]; IndC50 CYP2C9 (Mean EC50))?
A: 0.454 µM
